The record followed here is US11007237B2, “Agent for suppressing carbohydrate breakdown and absorption” (KOHAKU BIO TECHNOLOGY CO., LTD., priority 2017, dated 2021).

One data set relates to Caco-2 cells. The data set can be described thus: Suppression test for glucose uptake by the intestinal epithelial-like cells (Caco-2 cells), Transwell glucose permeation. The format is cell-based, human. The settings on record: for Glucose permeability (%) (n = 3): apical side, 2 hours, control = 100. The protocol:
(§1) The extract obtained can be examined for action to suppress α-glucosidase activity, for example, by the following method. The extract is added to human colon cancer-derived cells (hereinafter referred to as Caco-2 cells) and the cells are cultured. The cultured cells are collected. With a crude enzyme solution thereof, sucrose or maltose serving as substrate is allowed to react. The amount of glucose generated is quantified by an enzyme method using glucose oxidase. An action to inhibit glucose uptake can be examined by the following method. To Caco-2 cells differentiated into the intestinal epithelial-like, glucose and the extract were simultaneously added. The amount of glucose taken in the cells or permeated through the cells is quantified by an enzyme method using glucose oxidase.
The test herein was carried out in accordance with the method of Konishi et al. (Konishi et al., Biosci. Biotechnol. Biochem., 67(4), 856-862, 2003). In DMEM culture medium, Caco-2 cells were suspended. The suspension was added in Transwell-COL of 12 mm diameter and 0.4 μm in pore size (manufactured by Corning Incorporated) (hereinafter referred to as Transwell) in a ratio of 1.0×10^5 cells/cm^2 to seed the cells. The cells were cultured under 95% air-5% carbon dioxide gas at 37° C. for 3 weeks while exchanging the medium at intervals of 2 to 3 days.
After an intercellular electrical resistance (TER value) was confirmed to be 350 Ω·cm^2 or more by Millicell ERS-2 resistance measurement system (manufactured by Merck Millipore), the amber extract obtained in Production Example 1 was dissolved in DMSO on the apical side so as to obtain a final concentration of 0.2, 1 and 2 mg/mL, and mixed with a solution obtained by dissolving D(+)-glucose in PBS (+) in a concentration of 0.5% (hereinafter referred to as the 0.5% glucose solution) (DMSO final concentration: 1%). The resultant mixed solutions each were added in an amount of 500 μL. DMSO was added to a 0.5% glucose solution so as to obtain a DMSO final concentration of 1% and treated. This was used as a control. Phlorizin n-hydrate derived from an apple (hereinafter referred to as phlorizin) was dissolved in DMSO so as to obtain a final concentration of 1 mg/mL and mixed with the 0.5% glucose solution. The resultant DMSO solution (DMSO final concentration: 1%) was treated and used as a positive control. Further, succinic acid was subjected to a glucose permeation suppression test in the amount corresponding to that contained in the amber extract. More specifically, the content of succinic acid in the amber extract obtained in Production Example 1 was calculated by use of analysis/preparative high performance liquid chromatographic apparatus and Fourier transform infrared spectrophotometer. As a result, the content rate of succinic acid was confirmed to be 2% or less. Then, succinic acid was dissolved in DMSO so as to obtain a final concentration of 0.02, 0.05 and 0.1 mg/mL and mixed with PBS (+)(DMSO final concentration: 1%) and treated. At each basolateral side, 500 μL of PBS (+) was added. These transwells were subjected to culture carried out under 95% air −5% carbon dioxide gas at 37° C. for 2 hours. Thereafter the amount of glucose permeated on the basolateral side was quantified by use of glucose CII test Wako. The glucose permeability of the control sample was regarded as 100 and the relative changes for the samples containing a test substance were calculated. After the test, the TER value was confirmed to be 350 Ω·cm^2 or more.
(Passage across Caco-2 layers is used to estimate intestinal permeability.)

The target of a further data set is T1, sucrase (Homo sapiens, UniProt P14410).
T1 construct: Cells were collected with a lysis buffer (0.1 M phosphate buffer (pH6.8), 0.5% TritonX-100); endogenous in cells; host or cells: Caco-2 cells (Triton X-100 lysate supernatant, crude enzyme)
The data set can be described thus: Suppression test for sucrase activity in Caco-2 cells. The format is cell-based. The protocol: as §1
(§2) The test herein was carried out with reference to the method of OGAWA et al. (N. Ogawa et al., the Journal of Nutrition, 130: 507-513, 2000).
To Dulbecco's modified eagle medium (DMEM)(manufactured by Thermo Fisher Scientific K.K.), 10% fetal bovine serum (hereinafter referred to as FBS)(manufactured by Thermo Fisher Scientific K.K.), a 1% antibacterial agent (Penicillin-Streptomycin-L-Glutamine) (manufactured by FUJIFILM Wako Pure Chemical Corporation) and a 1% non-essential amino acid mixture (MEM Non-Essential Amino Acids) (manufactured by Thermo Fisher Scientific K.K.) were added to prepare a culture solution (hereinafter referred to as DMEM culture medium). In the DMEM culture solution (medium), Caco-2 cells were suspended. The suspension was added in 24-well plates (manufactured by TPP) in a ratio of 1.0×10^4 cells/cm^2 to seed the cells. The cells were cultured under 95% air/5% carbon dioxide gas at 37° C. for 8 to 10 days until the cultured cells reached confluency while exchanging the medium at intervals of 2 to 3 days. After the culture supernatant was removed by suction, the amber extract (50% ethanol extract) obtained in Production Example 1 was dissolved in dimethyl sulfoxide (hereinafter referred to as DMSO) so as to obtain a final concentration of 100 and 200 μg/mL. The DMSO solutions were mixed with DMEM culture medium (DMSO final concentration: 0.25%) and each added in an amount of 500 μL. DMSO was added to DMEM culture medium so as to obtain a DMSO final concentration of 0.25% and treated. This was used as a control. […] This was used as a positive control. In addition, the suppression test for sucrase/maltase activity was carried out by using succinic acid in the corresponding amount to that contained in amber extract. More specifically, the content of succinic acid in the amber extract obtained in Production Example 1 was calculated by analysis/preparative high performance liquid chromatographic apparatus and a Fourier transform infrared spectrophotometer. […]
(§3) Cells were collected with a lysis buffer (0.1 M phosphate buffer (pH6.8), 0.5% TritonX-100), allowed to stand still on ice for 20 minutes and centrifuged (10,000×g) at 4° C. for 30 minutes, and then, the supernatant was collected. […] Thereafter, the amount of the glucose generated was quantified in accordance with an enzyme method using glucose CII test Wako (manufactured by FUJIFILM Wako Pure Chemical Corporation). The sucrase activity and maltase activity were calculated, respectively, based on the production amount of glucose.

The next data set concerns maltase. The data set can be described thus: Suppression test for maltase activity in Caco-2 cells. The conditions noted are these: for Maltase activity (%) (n = 3): Caco-2 cells treated 7 days, control = 100. Type of data set: cell-based, human. The procedure: as §1, §2
To Dulbecco's modified eagle medium (DMEM)(manufactured by Thermo Fisher Scientific K.K.), 10% fetal bovine serum (hereinafter referred to as FBS)(manufactured by Thermo Fisher Scientific K.K.), a 1% antibacterial agent (Penicillin-Streptomycin-L-Glutamine) (manufactured by FUJIFILM Wako Pure Chemical Corporation) and a 1% non-essential amino acid mixture (MEM Non-Essential Amino Acids) (manufactured by Thermo Fisher Scientific K.K.) were added to prepare a culture solution (hereinafter referred to as DMEM culture medium). In the DMEM culture solution (medium), Caco-2 cells were suspended. The suspension was added in 24-well plates (manufactured by TPP) in a ratio of 1.0×10^4 cells/cm^2 to seed the cells. The cells were cultured under 95% air/5% carbon dioxide gas at 37° C. for 8 to 10 days until the cultured cells reached confluency while exchanging the medium at intervals of 2 to 3 days. […] More specifically, the content of succinic acid in the amber extract obtained in Production Example 1 was calculated by analysis/preparative high performance liquid chromatographic apparatus and a Fourier transform infrared spectrophotometer. […]
as §3

Setting [1] is: Caco-2 cells, succinic acid in the amount corresponding to that contained in the amber extract.

Molecules are shown by their SMILES.

T1 sequence (P14410 whole entry): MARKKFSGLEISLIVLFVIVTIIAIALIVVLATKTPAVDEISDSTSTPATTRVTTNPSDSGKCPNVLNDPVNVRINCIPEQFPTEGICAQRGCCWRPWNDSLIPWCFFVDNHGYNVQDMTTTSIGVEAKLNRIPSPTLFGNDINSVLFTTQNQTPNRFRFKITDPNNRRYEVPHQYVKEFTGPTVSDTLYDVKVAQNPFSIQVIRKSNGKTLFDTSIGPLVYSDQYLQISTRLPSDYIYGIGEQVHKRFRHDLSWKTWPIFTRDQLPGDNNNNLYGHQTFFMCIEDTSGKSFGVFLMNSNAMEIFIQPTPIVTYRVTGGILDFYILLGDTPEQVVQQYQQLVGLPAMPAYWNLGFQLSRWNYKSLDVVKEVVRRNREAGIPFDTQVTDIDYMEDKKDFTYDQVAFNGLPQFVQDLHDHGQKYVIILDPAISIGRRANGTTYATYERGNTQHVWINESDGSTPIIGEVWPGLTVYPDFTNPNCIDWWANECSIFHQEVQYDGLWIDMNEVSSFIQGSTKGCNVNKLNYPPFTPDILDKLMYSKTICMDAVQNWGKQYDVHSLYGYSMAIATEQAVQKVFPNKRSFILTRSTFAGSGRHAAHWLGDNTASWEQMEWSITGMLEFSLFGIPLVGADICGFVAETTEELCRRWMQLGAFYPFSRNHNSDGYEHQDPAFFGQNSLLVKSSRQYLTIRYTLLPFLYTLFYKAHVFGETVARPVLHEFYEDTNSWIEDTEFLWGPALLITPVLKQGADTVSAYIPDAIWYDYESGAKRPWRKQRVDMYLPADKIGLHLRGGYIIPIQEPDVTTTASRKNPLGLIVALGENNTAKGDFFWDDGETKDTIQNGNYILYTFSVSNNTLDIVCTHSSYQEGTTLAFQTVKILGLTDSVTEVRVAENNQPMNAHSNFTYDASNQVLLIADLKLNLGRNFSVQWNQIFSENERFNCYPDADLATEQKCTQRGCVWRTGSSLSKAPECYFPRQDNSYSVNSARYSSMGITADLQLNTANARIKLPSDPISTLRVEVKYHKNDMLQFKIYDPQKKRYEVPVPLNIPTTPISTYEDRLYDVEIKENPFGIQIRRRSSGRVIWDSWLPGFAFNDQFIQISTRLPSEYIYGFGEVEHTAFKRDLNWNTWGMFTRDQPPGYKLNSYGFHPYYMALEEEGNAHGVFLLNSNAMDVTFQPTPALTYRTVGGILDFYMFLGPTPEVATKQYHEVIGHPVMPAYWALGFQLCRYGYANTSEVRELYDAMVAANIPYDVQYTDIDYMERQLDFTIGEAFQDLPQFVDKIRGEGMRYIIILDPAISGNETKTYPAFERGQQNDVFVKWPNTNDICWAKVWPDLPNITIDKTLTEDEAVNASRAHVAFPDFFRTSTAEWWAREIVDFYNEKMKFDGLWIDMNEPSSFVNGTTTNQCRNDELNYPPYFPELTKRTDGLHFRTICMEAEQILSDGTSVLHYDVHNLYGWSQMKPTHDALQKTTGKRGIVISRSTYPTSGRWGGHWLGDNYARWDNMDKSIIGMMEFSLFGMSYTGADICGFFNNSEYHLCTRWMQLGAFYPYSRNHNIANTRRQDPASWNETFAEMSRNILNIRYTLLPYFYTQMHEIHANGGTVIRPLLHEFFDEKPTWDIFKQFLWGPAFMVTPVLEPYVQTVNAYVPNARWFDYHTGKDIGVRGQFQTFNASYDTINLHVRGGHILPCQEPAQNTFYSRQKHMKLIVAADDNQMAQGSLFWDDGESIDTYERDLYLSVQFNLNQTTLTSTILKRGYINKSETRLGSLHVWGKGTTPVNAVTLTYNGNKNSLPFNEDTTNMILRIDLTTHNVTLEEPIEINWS

Turning to `O=C(CCc1ccc(O)cc1)c1c(O)cc(O)cc1O[C@@H]1O[C@H](CO)[C@@H](O)[C@H](O)[C@H]1O` [Phlorizin, Phlorizin n-hydrate], the “Glucose permeability (%) (n = 3)” value in the data set with Caco-2 cells (1 mg/mL, 0.5% glucose) is 27.4 ± 1.8 %.
With `C[C@H]1O[C@H](O[C@H]2[C@H](O)[C@@H](O)[C@@H](O[C@H]3[C@H](O)[C@@H](O)C(O)O[C@@H]3CO)O[C@@H]2CO)[C@H](O)[C@@H](O)[C@@H]1N[C@H]1C=C(CO)[C@@H](O)[C@H](O)[C@H]1O` (some centres unmarked) [ACA, Acarbose], the activity at 100 µg/mL on sucrase (100 μg/mL, Caco-2 cells treated 7 days, control = 100, read-out: Sucrase activity (%) (n = 3)) worked out at 90.2 ± 4.1%.
Consider `O=C(O)CCC(=O)O` [Succinic acid, succinic acid], for which the activity at 2 µg/mL at sucrase (2 μg/mL, Caco-2 cells treated 7 days, control = 100, read-out: Sucrase activity (%) (n = 3)) came to 102 ± 3%. Also, at sucrase (5 μg/mL, Caco-2 cells treated 7 days, control = 100, read-out: Sucrase activity (%) (n = 3)), the activity at 5 µg/mL worked out at 95.4 ± 1.4%. Further, the activity at 25 µg/mL at sucrase (25 μg/mL, Caco-2 cells treated 7 days, control = 100, read-out: Sucrase activity (%) (n = 3)) was determined as 99.2 ± 2%. Moreover, at sucrase (setting [1]), the “Action to suppress sucrase activity in Caco-2 cells (in words)” value is “not confirmed”. The “Maltase activity (%) (n = 3)” value in the data set with maltase (2 μg/mL) is 108.3 ± 1.5%; with maltase (5 μg/mL) it was 99.2 ± 1.3%; in the data set on maltase (25 μg/mL) it was 100.9 ± 2.1%. Also, the “Action to suppress maltase activity in Caco-2 cells (in words)” value in the data set on maltase (setting [1]) is given as “not confirmed”. Besides, the “Glucose permeability (%) (n = 3)” value with Caco-2 cells (0.02 mg/mL) was 94.6 ± 1.6%; in the data set with Caco-2 cells (0.05 mg/mL), 92.8 ± 3.2%; with Caco-2 cells (0.1 mg/mL) it was 95.4 ± 2.5%. Also, the “Suppression of glucose uptake / permeation in Caco-2 cells (in words)” value in the data set with Caco-2 cells (setting [1]) was “not confirmed”.
